# Measurements: paper PMC9871744 (Cellular and Molecular Gastroenterology and Hepatology, 2022)
# Several values for one entry are separate records, joined by “and”; a condition that tells them apart may be missing. Identical values can stand only once.
# Experiments:
# [1] = test system: HepG2 cells; test: Micronucleus analysis
# [2] = Cytotoxicity evaluation; settings: human, Cytotoxicity (%)
# [3] = test system: HepG2 cells; test: Cytotoxicity evaluation
# [4] = test system: C57Bl/6 male mice; test: Lingual application: pancreato-bile secretion and release of gut peptides; type: in vivo; settings: tongue application 100 μmol/L; at 30 and 60 minutes
# [5] = test system: human fungiform TBC; test: Ca2+ signaling in human fungiform TBC; type: cell-based
# [6] = test system: mouse fungiform TBC; test: Ca2+ signaling in mouse fungiform TBC; type: cell-based; settings: LA at 20 μmol/L
# [7] = test system: chorda tympani (CT) nerve; test: Chorda tympani; type: in vivo; settings: lingual application in mice; 1, 2, and 4 mmol/L; normalized to NH4Cl 100 mmol/L
# [8] = test system: C57Bl/6 male mice; test: Two-bottle preference and licking tests; type: in vivo; settings: 75 μmol/L in 0.3% xanthan gum, 12 hours
# [9] = test system: C57BL/6J male mice; test: Diet-induced obesity; type: in vivo
# [10] = target: T1, human estrogen receptor alpha (hERα) (Homo sapiens, UniProt P03372); test: Estrogen receptor transcriptional activation and inhibition assays; type: cell-based
# T1 sequence (P03372 1-595): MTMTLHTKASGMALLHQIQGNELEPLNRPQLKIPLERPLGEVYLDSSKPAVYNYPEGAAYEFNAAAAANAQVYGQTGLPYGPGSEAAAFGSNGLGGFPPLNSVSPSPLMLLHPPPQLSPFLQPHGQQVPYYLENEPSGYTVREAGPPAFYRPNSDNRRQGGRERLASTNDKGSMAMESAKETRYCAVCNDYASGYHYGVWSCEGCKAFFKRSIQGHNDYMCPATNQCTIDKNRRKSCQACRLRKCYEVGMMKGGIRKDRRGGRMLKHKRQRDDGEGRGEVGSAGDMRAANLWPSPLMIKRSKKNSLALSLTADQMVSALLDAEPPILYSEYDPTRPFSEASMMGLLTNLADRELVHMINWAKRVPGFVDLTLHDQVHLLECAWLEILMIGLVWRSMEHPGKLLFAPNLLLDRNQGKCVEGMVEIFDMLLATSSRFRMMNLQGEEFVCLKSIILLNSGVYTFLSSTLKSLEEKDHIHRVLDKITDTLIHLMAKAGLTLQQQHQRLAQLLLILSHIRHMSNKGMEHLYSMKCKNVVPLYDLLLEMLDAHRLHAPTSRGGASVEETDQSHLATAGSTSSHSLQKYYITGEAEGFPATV
# [11] = test system: human androgen receptor (hAR); test: Androgen receptor transcriptional activation and inhibition assays; type: cell-based
# [12] = test system: female Wistar rats; test: Toxicity / median lethal dose test, OECD guidelines 425; type: in vivo
# [13] = Pharmacokinetics and detection in blood by LC-MS; type: in vivo, mice; settings: mice
# [14] = test system: S typhimurium tester strains TA98, TA100, TA1535, and TA1537 and E coli tester strain WP2uvrA(pKM101); settings: all doses with and without S9
# [15] = short treatment in the presence of S9 mix, 5 μg/mL (Table 11)
# [16] = short treatment in the presence of S9 mix, 10 μg/mL (Table 12)
# [17] = short treatment in the presence of S9 mix, 5 μg/mL (Table 4)
# [18] = short treatment in the presence of S9 mix, 10 μg/mL (Table 7)
# [19] = rats, single oral 2000 mg/kg, means ± SEM (n = 5)
# [20] = short treatment in the absence of S9 mix, 2.5 mmol/L
# [21] = short treatment in the absence of S9 mix, 5 mmol/L
# [22] = short treatment in the absence of S9 mix, 10 mmol/L
# [23] = short treatment in the presence of S9 mix, 2.5 mmol/L
# [24] = short treatment in the presence of S9 mix, 5 mmol/L
# [25] = short treatment in the presence of S9 mix, 10 mmol/L
# [26] = extended treatment in the absence of S9 mix
# [27] = short treatment in the absence of S9 mix
# [28] = short treatment in the presence of S9 mix
# [29] = extended treatment in the absence of S9 mix, 2.5 mmol/L
# [30] = extended treatment in the absence of S9 mix, 5 mmol/L
# [31] = extended treatment in the absence of S9 mix, 10 mmol/L
# [32] = extended treatment in the absence of S9 mix, 0.0025 μg/mL (Table 13)
# [33] = extended treatment in the absence of S9 mix, 0.025 μg/mL (Table 14)
# [34] = extended treatment in the absence of S9 mix, 0.0025 μg/mL (Table 5)
# [35] = extended treatment in the absence of S9 mix, 0.025 μg/mL (Table 8)
smiles,measurement,setting,value
"O=P1(N(CCCl)CCCl)NCCCO1 (stereo not drawn) [Cyclophosphamide, reference compound]",MNBN cells frequency (%),[1]; [15],2.3% and 3.1%
same,Mean frequency (%) of MNBN cells,[1]; [15],2.70%
same,MNBN cells frequency (%),[1]; [16],8.2% and 7.9%
same,Mean frequency (%) of MNBN cells,[1]; [16],8.05%
same,cytotoxicity at 5 μg/mL,[2]; [17],13%
same,cytotoxicity at 10 μg/mL,[2]; [18],5.3%
same,CBPI,[3]; [17],1.73 and 1.66
same,Mean CBPI,[3]; [17],1.70
same,CBPI,[3]; [18],1.93 and 2.09
same,Mean CBPI,[3]; [18],2.01
"CCCCC/C=C\C/C=C\CCCCCCCC(=O)O [LA, linoleic acid, reference compound]",release of cholecystokinin (CCK) into blood,[4],better inducer than NKS-3
"CCCCC/C=C\C/C=C\CCCCCCCC(=O)OCC1(C)COC1 [NKS-5, (9Z,12Z)-(3-methyloxetan-3-yl)methyl octadeca-9,12-dienoate]",Ca2+ signaling compared with a dietary long-chain fatty acid,[5],higher
same,"increase in intracellular free Ca2+ concentrations, [Ca2+]i","[5]; NKS-3 50 μmol/L, NKS-5 25 μmol/L",induced an increase
same,Ca2+ signaling compared with a dietary long-chain fatty acid,[6],higher
same,"CT nerve responses compared with dietary LCFAs (LA, OA)",[7],higher
same,release of cholecystokinin (CCK) into blood,[4],more efficient than NKS-3 and LA
same,release of peptide YY (PYY) into blood,[4],more potent than NKS-3 and LA
same,preference in 2-bottle paradigm versus control solution,[8],significant preference
same,"CD36 (reduced) and GPR120 (high) protein expression in TBC, Western blots","[9]; HFD animals, FTA intake 16 weeks",reversed this trend
same,LA-induced decreases in [Ca2+]i in TBC from obese mice,[9]; HFD mice given FTA 16 weeks,reversed
same,size of hepatocytes,[9]; HFD-fed mice,decreased
same,fecal microbiota: bacterial family increased,"[9]; HFD-fed mice, 16S rRNA sequencing, week 26",Bacteroidaceae
same,"adipose tissue mRNA encoding leptin, CD36, TNF-α, and IL6","[9]; HFD-fed mice, epididymal adipose tissue",down-regulated
same,crown-like structures of adipocytes,"[9]; obese animals, histology",decreased
same,circulating TNF-α levels,[9]; obese mice,failed to decrease significantly
same,"release of GLP-1, CCK-1, and PYY into blood circulation","[9]; obese mice, end of week 26",induced the release
same,estrogenic or antiestrogenic potential (conclusion),[10],did not exert an estrogenic or antiestrogenic potential
same,androgenic or antiandrogenic property (conclusion),[11],did not possess androgenic or antiandrogenic property
same,weight of kidneys,[12]; [19],1.84 ± 0.112 g
same,weight of liver,[12]; [19],8.03 ± 0.136 g
same,weight of spleen,[12]; [19],0.90 ± 0.062 g
same,toxic effect on liver enzymes and blood lipid parameters,"[12]; rats, single oral limit dose 2000 mg/kg body weight, 2 weeks",No toxic effect
same,"evidence of toxicity, preliminary study","[12]; single animal, oral dosages of 5000 mg/kg body weight",no evidence of toxicity
same,detection in blood circulation after intravenous injections (LC-MS),[13],below the level of detection
same,MNBN cells frequency (%),[1]; [20],1.1% and 0.8%
same,Mean frequency (%) of MNBN cells,[1]; [20],0.95%
same,MNBN cells frequency (%),[1]; [21],1.1% and 1.3%
same,Mean frequency (%) of MNBN cells,[1]; [21],1.20%
same,MNBN cells frequency (%),[1]; [22],0.9% and 0.8%
same,Mean frequency (%) of MNBN cells,[1]; [22],0.85%
same,MNBN cells frequency (%),[1]; [23],1.0% and 1.1%
same,Mean frequency (%) of MNBN cells,[1]; [23],1.05%
same,MNBN cells frequency (%),[1]; [24],0.9%
same,Mean frequency (%) of MNBN cells,[1]; [24],0.90%
same,MNBN cells frequency (%),[1]; [25],0.9% and 0.8%
same,Mean frequency (%) of MNBN cells,[1]; [25],0.85%
same,cytotoxicity at 2.5 mmol/L,[2]; [26],5.29%
same,cytotoxicity at 5 mmol/L,[2]; [26],19.6%
same,cytotoxicity at 10 mmol/L,[2]; [26],14.7%
same,cytotoxicity at 2.5 mmol/L,[2]; [27],-5.78%
same,cytotoxicity at 5 mmol/L,[2]; [27],-1.42%
same,cytotoxicity at 10 mmol/L,[2]; [27],1.32%
same,cytotoxicity at 2.5 mmol/L,[2]; [28],-0.59%
same,cytotoxicity at 5 mmol/L,[2]; [28],-6.22%
same,cytotoxicity at 10 mmol/L,[2]; [28],1.64%
same,CBPI,[3]; [29],2.02 and 1.97
same,Mean CBPI,[3]; [29],1.99
same,CBPI,[3]; [30],1.83 and 1.85
same,Mean CBPI,[3]; [30],1.84
same,CBPI,[3]; [31],1.95 and 1.84
same,Mean CBPI,[3]; [31],1.89
same,CBPI,[3]; [20],1.99 and 1.98
same,Mean CBPI,[3]; [20],1.98
same,CBPI,[3]; [21],1.95 and 1.94
same,Mean CBPI,[3]; [21],1.94
same,CBPI,[3]; [22],1.91 and 1.93
same,Mean CBPI,[3]; [22],1.92
same,CBPI,[3]; [23],2.07
same,Mean CBPI,[3]; [23],2.07
same,CBPI,[3]; [24],2.14 and 2.12
same,Mean CBPI,[3]; [24],2.13
same,CBPI,[3]; [25],2.06 and 2.04
same,Mean CBPI,[3]; [25],2.05
same,toxicity in the tester strains,[14],No toxicity
"CC[C@]1(O)C[C@@H]2CN(CCc3c([nH]c4ccccc34)[C@@](C(=O)OC)(c3cc4c(cc3OC)N(C)[C@H]3[C@@](O)(C(=O)OC)[C@H](OC(C)=O)[C@]5(CC)C=CCN6CC[C@]43[C@@H]65)C2)C1 [Vinblastine, reference compound]",MNBN cells frequency (%),[1]; [32],11.5% and 12.3%
same,Mean frequency (%) of MNBN cells,[1]; [32],11.9%
same,MNBN cells frequency (%),[1]; [33],4.6% and 4.1%
same,Mean frequency (%) of MNBN cells,[1]; [33],4.35%
same,cytotoxicity at 0.0025 μg/mL,[2]; [34],27.1%
same,cytotoxicity at 0.025 μg/mL,[2]; [35],9.29%
same,CBPI,[3]; [34],1.67
same,Mean CBPI,[3]; [34],1.67
same,CBPI,[3]; [35],1.97 and 1.92
same,Mean CBPI,[3]; [35],1.95
